One compound from patent US12358960B2, “Selective targeting of ubiquitin- and ubiquitin-like E1-activating enzymes by structurally-stabilized peptides” (Dana-Farber Cancer Institute, Inc., priority 2019, dated 2025) can be followed below.

Series [1] concerns HeLa S100 lysate fraction, polyubiquitin chains. Nature of the series: Cellular lysate enzyme inhibition (ubiquitination) assay. It counts as biochemical. The settings on record: excess ubiquitin, ATP regeneration solution, vs vehicle. The method, then: Cellular Lysate Enzyme Inhibition Assays: Cellular lysate assays were performed with 1 mg/mL final concentration HeLa S100 lysate fraction and the indicated concentration of peptide or DMSO vehicle control in an assay buffer containing 1×ATP regeneration solution, 20 mM HEPES, 50 mM NaCl, 5 mM MgCl2, 2 mM DTT, 100 nM ubiquitin aldehyde, and a protease-phosphatase inhibitor cocktail at pH 7.4. Reactions were initiated by addition of ubiquitin to a final concentration of 100 μM and allowed to proceed for 30 minutes at room temperature, followed by quenching with non-reducing LDS loading buffer. Proteins were separated by SDS-PAGE gel electrophoresis and detected by western blot against polyubiquitin (Cell Signaling Technology CST3936).

In series [2] the target is T1, deubiquitinase enzyme USP7 (Homo sapiens, UniProt Q93009).
T1 construct: purchased BostonBiochem E-519
T1 sequence (Q93009 whole entry): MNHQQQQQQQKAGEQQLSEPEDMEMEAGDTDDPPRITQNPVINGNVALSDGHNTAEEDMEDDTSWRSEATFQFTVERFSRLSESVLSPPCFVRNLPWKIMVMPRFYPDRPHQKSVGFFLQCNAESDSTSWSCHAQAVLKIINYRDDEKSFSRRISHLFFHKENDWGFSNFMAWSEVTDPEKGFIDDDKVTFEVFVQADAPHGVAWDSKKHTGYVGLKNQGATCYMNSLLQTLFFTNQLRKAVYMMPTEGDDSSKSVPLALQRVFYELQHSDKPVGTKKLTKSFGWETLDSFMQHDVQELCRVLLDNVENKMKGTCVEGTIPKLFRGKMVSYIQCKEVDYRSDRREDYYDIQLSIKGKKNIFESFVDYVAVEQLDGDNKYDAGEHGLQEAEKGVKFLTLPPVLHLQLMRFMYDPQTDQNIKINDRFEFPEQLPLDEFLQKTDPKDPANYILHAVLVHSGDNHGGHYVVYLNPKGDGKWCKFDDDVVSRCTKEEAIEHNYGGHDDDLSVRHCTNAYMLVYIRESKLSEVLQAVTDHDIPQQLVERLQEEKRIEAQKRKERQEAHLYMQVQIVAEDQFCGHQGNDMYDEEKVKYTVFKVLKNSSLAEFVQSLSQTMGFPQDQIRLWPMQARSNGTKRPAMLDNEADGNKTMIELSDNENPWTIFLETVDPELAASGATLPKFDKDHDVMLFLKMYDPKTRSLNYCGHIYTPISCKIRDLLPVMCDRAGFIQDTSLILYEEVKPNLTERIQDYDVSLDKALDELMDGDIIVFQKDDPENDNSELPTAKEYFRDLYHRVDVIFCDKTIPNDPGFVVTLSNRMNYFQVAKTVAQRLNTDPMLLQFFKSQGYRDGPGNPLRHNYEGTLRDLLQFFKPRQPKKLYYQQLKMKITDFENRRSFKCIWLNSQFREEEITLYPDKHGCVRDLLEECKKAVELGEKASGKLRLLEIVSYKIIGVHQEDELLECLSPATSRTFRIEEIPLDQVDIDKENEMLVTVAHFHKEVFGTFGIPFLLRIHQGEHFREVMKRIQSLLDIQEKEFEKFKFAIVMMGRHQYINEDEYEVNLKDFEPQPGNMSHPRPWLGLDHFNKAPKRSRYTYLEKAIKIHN
The experiment in a line: Deubiquitination of p53 by USP7 in the reconstitution assay. It counts as biochemical. Conditions: peptide 30 μM. The method, then: In Vitro Ubiquitin Pathway Reconstitution Assay: Reactions containing recombinant His-p53 (0.1 μM), in the presence or absence of peptide (30 μM), UBA1 (0.1 μM), UBE2D (1 μM), HDM2 (1 μM), ubiquitin (1 μM) and ATP (10 mM) (all Boston Biochem K-200B), preactivated Ub-UBEA2 (3 μM) (Boston Biochem E2-802), and USP7 (1 μM) (BostonBiochem E-519), as indicated, were mixed and incubated for 2 h at 37° C. in a final volume of […] followed by denaturation by boiling in SDS-containing loading dye for 10 min at 90° C. Samples were resolved by […] gel electrophoresis and transferred to nitrocellulose membrane. Membranes were blocked with 3% milk for 1 h, incubated overnight in PBS containing 3% BSA and mouse p53 antibody (Boston Biochem K-200B) at a 1:1000 dilution, washed in PBS containing 0.1% Tween-20, and then incubated in PBS containing 3% BSA and anti-mouse secondary antibody (BioRad AAC10P) at a 1:5000 dilution for 1 hour at room temperature. Membranes were again washed in PBS containing 0.1% Tween-20 and imaged using Amersham ECL Prime (GE Life Sciences) on an Amersham Imager 680 (GE Life Sciences).

Series [3] concerns the target T2, UBA1 (Homo sapiens, UniProt P22314).
T2 sequence (P22314 1-1058): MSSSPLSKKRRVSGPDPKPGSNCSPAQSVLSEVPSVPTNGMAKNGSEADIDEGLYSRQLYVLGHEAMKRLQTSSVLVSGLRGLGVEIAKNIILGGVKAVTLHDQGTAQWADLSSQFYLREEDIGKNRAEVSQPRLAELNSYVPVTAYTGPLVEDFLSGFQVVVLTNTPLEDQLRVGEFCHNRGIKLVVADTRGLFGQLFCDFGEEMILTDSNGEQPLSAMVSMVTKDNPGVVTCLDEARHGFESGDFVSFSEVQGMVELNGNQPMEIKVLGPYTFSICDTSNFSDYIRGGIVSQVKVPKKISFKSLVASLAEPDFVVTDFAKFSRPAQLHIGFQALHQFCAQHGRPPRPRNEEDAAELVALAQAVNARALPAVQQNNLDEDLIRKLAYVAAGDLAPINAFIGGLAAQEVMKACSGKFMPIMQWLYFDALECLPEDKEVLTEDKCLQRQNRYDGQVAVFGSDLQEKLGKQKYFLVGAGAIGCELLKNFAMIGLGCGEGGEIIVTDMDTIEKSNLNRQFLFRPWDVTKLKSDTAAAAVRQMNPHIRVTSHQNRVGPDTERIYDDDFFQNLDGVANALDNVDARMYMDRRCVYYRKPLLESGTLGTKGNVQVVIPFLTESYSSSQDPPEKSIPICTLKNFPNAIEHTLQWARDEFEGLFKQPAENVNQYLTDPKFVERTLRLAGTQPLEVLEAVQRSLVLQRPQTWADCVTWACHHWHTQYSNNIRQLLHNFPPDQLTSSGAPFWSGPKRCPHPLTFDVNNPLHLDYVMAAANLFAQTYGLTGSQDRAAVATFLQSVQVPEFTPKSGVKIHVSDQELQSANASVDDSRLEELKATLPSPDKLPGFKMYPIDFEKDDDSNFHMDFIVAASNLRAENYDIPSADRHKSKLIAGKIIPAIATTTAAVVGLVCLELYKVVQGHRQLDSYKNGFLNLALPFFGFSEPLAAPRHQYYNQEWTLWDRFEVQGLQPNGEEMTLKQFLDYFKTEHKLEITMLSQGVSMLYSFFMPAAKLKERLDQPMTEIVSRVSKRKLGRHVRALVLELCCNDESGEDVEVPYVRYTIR
The experiment in a line: UBA1~Ub thioester adduct formation (thioester transfer assay gel resolving UBA1 from UBA1~Ub). It counts as biochemical. Conditions: all concentrations of peptide.

Series [4] has as its target T2, UBA1. Nature of the series: Fluorescence polarization binding assay. The settings on record: presence and absence of ubiquitin and ATP.
From the text: (§1) In vitro Binding Assays: To assess the binding and affinity of peptidomimetic macrocycles and peptidomimetic precursors to acceptor proteins, a fluorescence polarization assay (FPA) can be used, for example. The FPA technique measures the molecular orientation and mobility using polarized light and fluorescent tracer. When excited with polarized light, fluorescent tracers (e.g., FITC) attached to molecules with high apparent molecular weights (e.g., FITC-labeled peptides bound to a large protein) emit higher levels of polarized fluorescence due to their slower rates of rotation as compared to fluorescent tracers attached to smaller molecules (e.g., FITC-labeled peptides that are free in solution).
as §1, with “ligands” for “peptidomimetic macrocycles and peptidomimetic precursors”

Series [5] is described as follows: Circular dichroism, α-helicity. It counts as physicochemical. Conditions: in solution. The procedure: Assays to Determine α-Helicity: Compounds are dissolved in an aqueous solution (e.g., 5 mM potassium phosphate solution at pH 7, or distilled H2O, to concentrations of 25-50 μM). Circular dichroism (CD) spectra are obtained on a spectropolarimeter (e.g., Jasco J-710, Aviv) using standard measurement parameters (e.g., temperature, 20° C.; wavelength, 190-260 nm; step resolution, 0.5 nm; speed, 20 nm/sec; accumulations, 10; response, 1 sec; bandwidth, 1 nm; path length, 0.1 cm). The α-helical content of each peptide is calculated by dividing the mean residue ellipticity by the reported value for a model helical decapeptide (Yang et al., Methods Enzymol. 130:208 (1986)).
Circular Dichroism: Acetylated peptides were dissolved in 10% (vol/vol) acetonitrile in water for circular dichroism analyses, performed on an Aviv Biomedical spectrophotometer, as reported (see Bird et. al., Methods in Enzymol., 446:369-386 (2008)).
(In general: CD spectra are sensitive to the conformation of chiral molecules.)

Entries after “also recorded” stand apart in the source; their conditions may differ. Bridge positions count the residues as written; N and C are the ends. Square brackets hold non-standard residues; d marks the D form. Peptide text beside a SMILES is read from it. R8 = C=CCCCCCC[C@@](C)(N)C(=O)O; S5 = C=CCCC[C@](C)(N)C(=O)O; Nle = CCCC[C@H](N)C(=O)O

For `CCCC[C@H](NC(C)=O)C(=O)N[C@@H](CO)C(=O)N[C@H](C(=O)N1CCC[C@H]1C(=O)N[C@]1(C)CCCCCCC=CCCC[C@@](C)(C(=O)N[C@@H](Cc2ccccc2)C(=O)N[C@@H](CCCCN)C(=O)N[C@@H](CCCNC(=N)N)C(=O)N[C@@H](CC(C)C)C(=O)N[C@@H](CCC(N)=O)C(N)=O)NC(=O)[C@H](CCCNC(=N)N)NC(=O)[C@H](CCCC)NC(=O)[C@H](CC(C)C)NC(=O)[C@H](CCCNC(=N)N)NC(=O)[C@H](CCCNC(=N)N)NC(=O)[C@H](CCCNC(=N)N)NC1=O)[C@@H](C)O` [SAH-UBE2A-11, BSTPX1RRRLBRX2FKRLQ] (Ac-[Nle]STP[R8]RRRL[Nle]R[S5]FKRLQ-NH2; staple 5-12), the “formation of polyubiquitin chains in HeLa cell cytoplasmic fraction” value in series [1] is listed as “dose-dependently inhibited formation of polyubiquitin chains”. The “activity of deubiquitinase USP7 against p53” value in series [2] was “no effect on the activity of the deubiquitinase enzyme USP7 against p53”; in series [2] (listed as SAH-UBE2A) it was “regardless of SAH-UBE2A presence”. Also, the entries for the “ability of UBA1 to form covalent UBA1~Ub thioester adduct” value at UBA1 [3] and at UBA1 [3] (listed as SAH-UBE2A) were “no effect on the ability of UBA1 to covalently charge itself with ubiquitin” and “no effect on the ability of UBA1 to form a covalent UBA1˜Ub thioester adduct”, respectively. The “direct binding to recombinant UBA1, fluorescence polarization” value at UBA1 [4] was “binds to UBA1 independent of ubiquitin and ATP; also recorded: direct binding of SAH-UBE2A to recombinant UBA1”. Also, in series [5], the “helicity / helical content” value was found to be 54%.
